Results published in paper PMC8147781, “Discovery of Pyrrolidine-2,3-diones as Novel Inhibitors of P. aeruginosa PBP3” (Antibiotics, 2021).
Several values for one entry are separate records, joined by “and”; a condition that tells them apart may be missing. Identical values can stand only once.

Each molecule was assayed against T1, PaPBP3 coated on a CM5 chip (Pseudomonas aeruginosa, UniProt G3XD46) (assay: Surface plasmon resonance (SPR), steady-state analysis). Details: 25 °C.
T1 construct: P. aeruginosa PBP3 (amino acids 40 to 563); His-tag; made in house; host or cells: E. coli BL21 (DE3) Rosetta, plasmid pET41_PBP-3
T1 sequence (G3XD46 40-563): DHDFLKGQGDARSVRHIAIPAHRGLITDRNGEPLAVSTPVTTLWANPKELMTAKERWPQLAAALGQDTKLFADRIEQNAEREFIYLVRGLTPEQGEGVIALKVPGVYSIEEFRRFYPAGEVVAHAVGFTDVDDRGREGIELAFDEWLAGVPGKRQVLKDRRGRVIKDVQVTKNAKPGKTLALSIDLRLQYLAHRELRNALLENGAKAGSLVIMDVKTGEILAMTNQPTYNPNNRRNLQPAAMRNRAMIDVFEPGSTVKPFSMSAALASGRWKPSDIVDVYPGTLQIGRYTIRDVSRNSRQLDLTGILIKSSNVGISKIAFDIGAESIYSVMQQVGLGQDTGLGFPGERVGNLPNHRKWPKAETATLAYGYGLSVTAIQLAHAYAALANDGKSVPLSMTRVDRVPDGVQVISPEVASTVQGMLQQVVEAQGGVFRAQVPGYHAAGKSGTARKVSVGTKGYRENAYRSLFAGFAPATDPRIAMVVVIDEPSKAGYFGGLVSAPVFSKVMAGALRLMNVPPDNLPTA
Type: binding
Experimental: Next, we confirmed the binding of the best inhibitors (analogues 34, 35, 40, 38 and 37) by surface plasmon resonance (SPR), using ^PaPBP3 coated on a CM5 chip as the ligand. The sensorgrams (Figure A1C and Figure A2C) indicated fast association and dissociation with all compounds tested. Dissociation constants (Kd) were determined via steady-state analysis using the maximum resonance signal obtained with a range of analyte concentrations.
SPR experiments were performed at 25 °C by using a Biacore T200 instrument from Cytiva (Marlborough, MA, USA). Purified ^PaPBP3 was coated on a CM5 chip, that was activated with EDC/NHS (1-ethyl-3-(3-dimethylaminopropyl) carbodiimide/N-hydroxysuccinimide) beforehand and blocked with ethanolamine after protein attachment. We achieved a protein amount of 11.820 RU. For every analyte, two concentration series between 3.25 µM and 200 µM were prepared in the running buffer (13 mM NaCl, 257 µM KCl, 171 µM KH2PO4, 950 µM Na2HPO4, 0.05% Tween-20 and 5% DMSO, pH 7.4) in a 96 well plate. Prior to the injection, the baseline was determined using running buffer for 300 s. Then, the analytes were then associated for 100 s and dissociated for 300 s with a flow rate of 30 µL/min. A 30 s washing step with 50% DMSO was used after every injection to regenerate the chip. In the final step, ten different DMSO concentrations ranging from 4.0% to 5.8% were used as the internal solvent correction. Steady state analysis was performed by using the internal Biacore software and figures were prepared with Prism v.8 using the points of one concentration series, respectively.

**Q.** How did the Kd turn out when `O=C(C1=C(O)C(=O)N(CCc2c[nH]c3ccccc23)C1c1ccc(Cl)cc1)c1ccc(Br)cc1` (stereo not drawn) [Compound 40] was run?
**A.** The Kd was 22.9 µM.

**Q.** `O=C(C1=C(O)C(=O)N(Cc2cc3cc(Cl)ccc3[nH]2)C1c1ccc(Cl)cc1)c1ccc(Br)cc1` (stereo not drawn) [Compound 35] was tested. Which Kd did it give?
**A.** Its Kd is 9.8 µM and 9.82 µM.

**Q.** For `O=C(C1=C(O)C(=O)N(Cc2cc3ccccc3[nH]2)C1c1ccc(Cl)cc1)c1ccc(Br)cc1` (stereo not drawn) [Compound 34, 4-(4-bromobenzoyl)-5-(4-chlorophenyl)-3-hydroxy-1-(1H-indol-2-ylmethyl)-5H-pyrrol-2-one], which Kd is on record?
**A.** Its Kd is 6.4 µM and 6.44 µM.

**Q.** `O=C(C1=C(O)C(=O)N(CCc2cc3ccccc3[nH]2)C1c1ccc(Cl)cc1)c1ccc(Br)cc1` (stereo not drawn) [Compound 37] was tested. Which Kd did it give?
**A.** The Kd was 454 µM.

**Q.** What about the “Kd (µM) SPR” value of the same molecule?
**A.** Its value is “too high to conclude a specific binding”.

**Q.** With `O=C(C1=C(O)C(=O)N(Cc2nc3ccccc3[nH]2)C1c1ccc(Cl)cc1)c1ccc(Br)cc1` (stereo not drawn) [Compound 38] as the molecule, how does the Kd read?
**A.** The Kd was 62.7 µM.
